Among the data in ChEMBL document CHEMBL1687921, “Natural product-based phenols as novel probes for mycobacterial and fungal carbonic anhydrases” (J Med Chem, 2011) are Ki and fold change (FC) values, retold here.

Molecules are shown by their SMILES.

In test [1] the target is T1, PROBABLE TRANSMEMBRANE CARBONIC ANHYDRASE (CARBONATE DEHYDRATASE) (CARBONIC DEHYDRATASE) (Mycobacterium tuberculosis, UniProt P96878).
T1 sequence (P96878 whole entry): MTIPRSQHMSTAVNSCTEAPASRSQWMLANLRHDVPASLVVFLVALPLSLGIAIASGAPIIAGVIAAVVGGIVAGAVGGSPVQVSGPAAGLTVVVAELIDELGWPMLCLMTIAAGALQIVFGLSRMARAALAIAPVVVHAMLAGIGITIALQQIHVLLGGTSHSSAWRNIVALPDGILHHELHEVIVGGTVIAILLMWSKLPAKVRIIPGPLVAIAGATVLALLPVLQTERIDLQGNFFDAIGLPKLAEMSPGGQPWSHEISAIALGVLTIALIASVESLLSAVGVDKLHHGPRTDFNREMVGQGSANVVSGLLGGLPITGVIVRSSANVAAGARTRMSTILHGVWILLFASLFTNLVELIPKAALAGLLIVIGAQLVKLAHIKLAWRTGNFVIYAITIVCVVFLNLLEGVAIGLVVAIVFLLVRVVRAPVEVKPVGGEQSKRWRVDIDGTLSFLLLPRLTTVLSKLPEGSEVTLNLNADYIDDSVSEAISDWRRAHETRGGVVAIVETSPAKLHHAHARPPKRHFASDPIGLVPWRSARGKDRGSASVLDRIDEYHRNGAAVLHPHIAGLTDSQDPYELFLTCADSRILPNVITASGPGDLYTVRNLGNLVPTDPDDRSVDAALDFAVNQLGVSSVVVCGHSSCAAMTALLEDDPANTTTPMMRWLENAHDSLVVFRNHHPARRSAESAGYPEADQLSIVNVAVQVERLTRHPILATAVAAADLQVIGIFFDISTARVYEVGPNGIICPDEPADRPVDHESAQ
Description: Inhibition of Mycobacterium tuberculosis recombinant Rv3273 beta-carbonic anhydrase after 15 mins by stopped flow CO2 hydration assay

The target in test [2] is T2, Beta-carbonic anhydrase 1 (Mycobacterium tuberculosis, UniProt P9WPJ7).
T2 sequence (P9WPJ7 whole entry): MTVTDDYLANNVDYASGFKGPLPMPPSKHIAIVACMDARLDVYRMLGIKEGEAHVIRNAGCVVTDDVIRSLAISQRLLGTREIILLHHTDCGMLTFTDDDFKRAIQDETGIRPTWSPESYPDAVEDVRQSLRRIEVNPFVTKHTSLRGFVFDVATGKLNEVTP
Description: Inhibition of Mycobacterium tuberculosis recombinant Rv1284 beta-carbonic anhydrase after 15 mins by stopped flow CO2 hydration assay

A further test concerns the target T3, Carbonic anhydrase (Candida albicans (strain SC5314 / ATCC MYA-2876) (Yeast), UniProt Q5AJ71).
T3 sequence (Q5AJ71 whole entry): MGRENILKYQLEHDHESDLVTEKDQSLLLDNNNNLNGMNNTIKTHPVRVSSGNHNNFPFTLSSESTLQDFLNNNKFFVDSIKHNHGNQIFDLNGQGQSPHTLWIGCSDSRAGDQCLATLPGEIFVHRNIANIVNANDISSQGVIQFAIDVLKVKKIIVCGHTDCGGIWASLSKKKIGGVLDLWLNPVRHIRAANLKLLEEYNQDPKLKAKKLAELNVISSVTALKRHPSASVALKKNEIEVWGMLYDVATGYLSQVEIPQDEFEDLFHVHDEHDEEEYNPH

Test [3] deals with T4, Carbonic anhydrase 2 (Cryptococcus neoformans, UniProt Q3I4V7).
T4 sequence (Q3I4V7 whole entry): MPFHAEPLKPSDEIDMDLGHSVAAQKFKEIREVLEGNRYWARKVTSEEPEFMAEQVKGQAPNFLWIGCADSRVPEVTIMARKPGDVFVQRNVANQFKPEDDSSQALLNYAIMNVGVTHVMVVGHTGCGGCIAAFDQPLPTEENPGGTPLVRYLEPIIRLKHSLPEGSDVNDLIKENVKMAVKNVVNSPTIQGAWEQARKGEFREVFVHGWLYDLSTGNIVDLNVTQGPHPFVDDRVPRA
Description: Inhibition of Cryptococcus neoformans recombinant Can2 beta-carbonic anhydrase after 15 mins by stopped flow CO2 hydration assay

The target in the next test is Carbonic anhydrase 1 (Homo sapiens, UniProt P00915).
Test [4] concerns the target Carbonic anhydrase 2 (Homo sapiens, UniProt P00918).
Description: Inhibition of human recombinant alpha-carbonic anhydrase 2 after 15 mins by stopped flow CO2 hydration assay
In test [5] the target is T5, Beta-carbonic anhydrase 1 (Mycobacterium tuberculosis) (UniProt P9WPJ7).
T5 sequence (whole entry): T2 sequence (P9WPJ7 whole entry)

Sequence of Carbonic anhydrase 1 (P00915 whole entry): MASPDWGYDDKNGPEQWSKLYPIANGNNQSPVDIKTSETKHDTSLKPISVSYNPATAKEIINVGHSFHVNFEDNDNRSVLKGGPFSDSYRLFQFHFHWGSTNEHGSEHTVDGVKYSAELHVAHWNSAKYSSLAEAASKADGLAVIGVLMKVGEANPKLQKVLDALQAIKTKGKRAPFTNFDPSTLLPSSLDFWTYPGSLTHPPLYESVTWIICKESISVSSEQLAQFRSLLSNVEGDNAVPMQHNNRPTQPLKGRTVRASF

Regarding `COc1cc([C@@H]2[C@@H](C)[C@@H](C)[C@@H]2c2ccc(O)c(OC)c2)ccc1O` [ENDIANDRIN B], the Ki in test [1] was 890 nM; in test [2] it was 800 nM; on Carbonic anhydrase, 700 nM; on Carbonic anhydrase 2 [3], 950 nM; on Carbonic anhydrase 1, 354000 nM; at Carbonic anhydrase 2 [4], 12100 nM.
Take `NC1=N/C(=C\c2ccc(O)c(O)c2)C(=O)N1` [POLYANDROCARPAMINE B]: the Ki came out at 920 nM in test [1], 910 nM in test [2], 900 nM at Carbonic anhydrase and 950 nM on Carbonic anhydrase 2 [3].
On to `COc1cc([C@@H]2[C@@H](C)[C@H](C)[C@H]2c2ccc(O)c(OC)c2)ccc1O` [ENDIANDRIN A], for which the inhibition constant (Ki) in test [1] turned out to be 8920 nM; in test [2], 820 nM; on Carbonic anhydrase it was 730 nM; on Carbonic anhydrase 2 [3] it was 770 nM; on Carbonic anhydrase 1, 368000 nM; at Carbonic anhydrase 2 [4], 11700 nM.
As to `O=C(Cc1ccc(O)c(Cl)c1)NCCc1ccccc1`, the inhibition constant (Ki) in test [1] was 970 nM; in test [2], 800 nM; on Carbonic anhydrase, 930 nM; at Carbonic anhydrase 2 [3] it was 810 nM; on Carbonic anhydrase 1, 9600 nM; at Carbonic anhydrase 2 [4] it was 9800 nM.
Take `COc1ccc(CCNC(=O)Cc2ccc(O)c(Cl)c2)cc1OC`: the inhibitory constant (Ki) in test [1] amounted to 900 nM; in test [2] it was 1780 nM; on Carbonic anhydrase, 750 nM; on Carbonic anhydrase 2 [3], 860 nM.
Take `CC1(C)O[C@@H]2[C@@H](CO[C@@]3(COS(N)(=O)=O)OC(C)(C)O[C@@H]23)O1` [TOPIRAMATE]: affinity in test [1] was put at a Ki of 3020 nM. This lies in the single-digit micromolar range.
As for `OCCc1ccc(O)cc1` [TYROSOL], the fold change (FC) in test [5] is 75. Besides, the Ki in test [1] came out at 12100 nM; in test [2], 850 nM; at Carbonic anhydrase, 1100 nM; on Carbonic anhydrase 2 [3], 1080 nM; at Carbonic anhydrase 1 it was 430000 nM; at Carbonic anhydrase 2 [4] it was 8700 nM.
In the case of `CC(C)(C)NC(=O)Cc1ccc(O)c(Cl)c1`, the inhibition constant Ki in test [1] came out at 10200 nM; in test [2] it was 12300 nM; on Carbonic anhydrase, 960 nM; at Carbonic anhydrase 2 [3], 910 nM.
In the case of `COc1cc(/C=C2\N=C(N)NC2=O)ccc1O` [POLYANDROCARPAMINE A], the Ki in test [1] is 910 nM; in test [2], 11800 nM; at Carbonic anhydrase it was 920 nM; at Carbonic anhydrase 2 [3], 890 nM; on Carbonic anhydrase 1, 10500 nM; at Carbonic anhydrase 2 [4], 9600 nM.
For the molecule `COc1cc(CO)cc2oc3ccc(O)c(C(=O)O)c3c(=O)c12`, the Ki came to 10900 nM in test [1], 990 nM in test [2], 1010 nM on Carbonic anhydrase and 1080 nM at Carbonic anhydrase 2 [3].
In turn, `NS(=O)(=O)Cc1noc2ccccc12` [ZONISAMIDE] came in with an inhibitory constant (Ki) in test [2] of 287000 nM.
In the case of `COc1cc(C[C@@H](C)[C@H](C)Cc2ccc(O)c(OC)c2)ccc1O` [(-)-DIHYDROGUAIARETICACID], the Ki in test [1] stood at 9100 nM; in test [2] it was 850 nM; at Carbonic anhydrase it was 620 nM; on Carbonic anhydrase 2 [3] it was 810 nM; at Carbonic anhydrase 1, 307000 nM; on Carbonic anhydrase 2 [4], 230000 nM.
Take `COCCNC(=O)Cc1ccc(O)c(Cl)c1`: the Ki in test [1] worked out at 1140 nM; in test [2], 11000 nM; on Carbonic anhydrase, 990 nM; on Carbonic anhydrase 2 [3] it was 950 nM; on Carbonic anhydrase 1, 158000 nM; at Carbonic anhydrase 2 [4], 10400 nM.
In the case of `O=C(Cc1ccc(O)c(Cl)c1)NCc1ccccc1`, the Ki in test [1] amounted to 980 nM; in test [2], 12200 nM; at Carbonic anhydrase, 780 nM; on Carbonic anhydrase 2 [3], 720 nM; on Carbonic anhydrase 1, 10500 nM; on Carbonic anhydrase 2 [4], 11400 nM.
With `NS(=O)(=O)c1ccc(CCNC(=O)Cc2ccc(O)c(Cl)c2)cc1`, the inhibitory constant (Ki) in test [1] was 850 nM; in test [2], 1160 nM; at Carbonic anhydrase, 790 nM; on Carbonic anhydrase 2 [3] it was 740 nM.
Take `Nc1ccc(S(N)(=O)=O)cc1` [SULFANILAMIDE]: in test [1], the inhibition constant (Ki) was 7110 nM.
Take `O=C(O)Cc1ccc(O)cc1`: the inhibition constant (Ki) was found to be 11400 nM in test [1]; 10800 nM in test [2]; 1020 nM on Carbonic anhydrase; 900 nM on Carbonic anhydrase 2 [3]; 309000 nM at Carbonic anhydrase 1; 10300 nM on Carbonic anhydrase 2 [4].
Turning to `NC(=O)Cc1ccc(O)cc1`, the Ki amounted to 9120 nM in test [1], 850 nM in test [2], 910 nM on Carbonic anhydrase and 840 nM at Carbonic anhydrase 2 [3].
`O=C(O)Cc1ccc(O)c(Cl)c1`: the Ki is 10800 nM in test [1], 10300 nM in test [2], 1080 nM at Carbonic anhydrase and 1120 nM at Carbonic anhydrase 2 [3].
For `NC(=O)Cc1ccc(O)c(Cl)c1`, in that order: 11200 nM, 10500 nM, 1000 nM and 850 nM.
The corresponding values for `Oc1ccccc1` [PHENOL] are 79000 nM, 64000 nM, 17300 nM and 25900 nM.
The corresponding values for `COc1cc(C)cc2oc3ccc(O)c(C(=O)O)c3c(=O)c12` are 11400 nM, 10500 nM, 1060 nM and 1120 nM.
As for `COC(=O)/C=C/C(=O)N[C@H](Cc1ccc(O)c(Cl)c1)C(=O)O` [(-)-XYLARIAMIDE A], the Ki in test [1] was found to be 11300 nM; in test [2], 840 nM; on Carbonic anhydrase, 1030 nM; on Carbonic anhydrase 2 [3] it was 1150 nM.
The corresponding values for `COc1cccc(CCNC(=O)Cc2ccc(O)c(Cl)c2)c1` are 910 nM, 1270 nM, 720 nM and 940 nM.
For `CCCCNC(=O)Cc1ccc(O)c(Cl)c1`, the Ki in test [1] was 10400 nM; in test [2] it was 11600 nM; at Carbonic anhydrase, 810 nM; at Carbonic anhydrase 2 [3] it was 730 nM; at Carbonic anhydrase 1 it was 10700 nM; on Carbonic anhydrase 2 [4] it was 9400 nM.
Turning to `COC(=O)/C=C/C(=O)N[C@@H](Cc1ccc(O)c(Cl)c1)C(=O)O` [(+)-XYLARIAMIDE A], the inhibition constant (Ki) was determined as 10900 nM in test [1], 710 nM in test [2], 1060 nM on Carbonic anhydrase and 1110 nM at Carbonic anhydrase 2 [3].
